For one series, the system named is VCaP cells. The series is described as follows: Cytotoxicity assessment (Cell-titer-glo cell viability), VCaP.
For another series, the system named is LNCaP cells. Briefly: Cytotoxicity assessment (Cell-titer-glo cell viability), LNCaP.
Another series concerns the target T1, Androgen receptor (AR) (Homo sapiens, UniProt P10275, T878A).
T1 construct: 5.5×10^5 LNCap cells were injected into each well of a 6-well plate; endogenous in cells; host or cells: LNCaP
T1 sequence (P10275 1-920 T878A): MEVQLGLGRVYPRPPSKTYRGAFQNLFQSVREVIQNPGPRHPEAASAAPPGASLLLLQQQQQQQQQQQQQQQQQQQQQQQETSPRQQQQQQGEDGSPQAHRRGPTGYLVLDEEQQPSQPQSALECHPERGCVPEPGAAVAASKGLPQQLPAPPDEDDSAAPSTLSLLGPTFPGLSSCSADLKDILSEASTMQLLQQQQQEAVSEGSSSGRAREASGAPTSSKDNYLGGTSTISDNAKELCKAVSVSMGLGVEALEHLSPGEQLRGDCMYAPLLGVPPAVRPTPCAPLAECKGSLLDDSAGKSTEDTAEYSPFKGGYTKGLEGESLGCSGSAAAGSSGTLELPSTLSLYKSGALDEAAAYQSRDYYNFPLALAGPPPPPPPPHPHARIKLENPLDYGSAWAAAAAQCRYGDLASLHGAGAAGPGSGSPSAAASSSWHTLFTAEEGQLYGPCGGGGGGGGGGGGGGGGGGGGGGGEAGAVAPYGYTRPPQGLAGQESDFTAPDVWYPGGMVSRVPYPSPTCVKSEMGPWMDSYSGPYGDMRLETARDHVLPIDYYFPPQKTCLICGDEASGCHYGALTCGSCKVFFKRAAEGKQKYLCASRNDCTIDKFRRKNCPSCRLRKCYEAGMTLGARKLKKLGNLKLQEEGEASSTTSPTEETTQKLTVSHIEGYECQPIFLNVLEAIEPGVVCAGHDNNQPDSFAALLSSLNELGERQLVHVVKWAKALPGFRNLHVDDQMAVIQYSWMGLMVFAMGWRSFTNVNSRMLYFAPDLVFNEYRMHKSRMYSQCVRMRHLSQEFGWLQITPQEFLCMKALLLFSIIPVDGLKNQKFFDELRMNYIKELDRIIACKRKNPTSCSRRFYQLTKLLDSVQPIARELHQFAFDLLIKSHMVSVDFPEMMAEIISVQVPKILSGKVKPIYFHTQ
The series is described as follows: Assessment of AR proteolytic activity (Western blotting of LNCap cell lysates). It counts as cell-based. To be noted: 24 hours of treatment, Western blotting quantified with Image J. Put shortly:
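AR degradation read by Western blot densitometry on RIPA lysates (pH 7.5, protease inhibitor cocktail). Lysates came from LNCap cells, 5.5×10^5 per well, exposed to compound for 24 hours.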

Where [1] appears, read: read-out: VCaP (CC50), VCaP cells, 6 days of treatment, Cell-titer-glo, vs DMSO.
Where [2] appears, read: read-out: LNCAP (CC50), LNCaP cells, 6 days of treatment, Cell-titer-glo, vs DMSO.

Where two headings read alike, the source gives them in different places.

Protocol for LNCaP cells: In order to evaluate the androgen receptor (AR) cytotoxicity of the compounds according to the present invention, the following experiment was conducted. Specifically, 1.5×10^3 (LNCaP) or 4×10^3 (VCaP, 22RV1), respectively, of LNCaP, VCaP, and 22RV1 cells were injected into each well of a 96-well plate. The next day, each well was treated with the compound at a final concentration of 3 nM, 10 nM, 30 nM, 100 nM, 300 nM, 1 μM, 3 μM, and 10 μM. […] After 6 days of treatment, Cell-titer-glo (promega) was treated and reacted for 10 minutes, and cell viability was measured with a multimode plate reader (PerkinElmer, Inc.), and the change was quantified compared to when DMSO was treated.

In the case of `CC1(C)C(NC(=O)c2ccc(-n3cc(C4CCN(C(=O)CNc5ccc6nnn(C7CCC(=O)NC7=O)c(=O)c6c5)CC4)nn3)cc2)C(C)(C)C1Oc1ccc(C#N)c(Cl)c1` (stereo not shown) [Example 107, N-((1r,3r)-3-(3-chloro-4-cyanophenoxy)-2,2,4,4-tetramethylcyclobutyl)-4-(4-(1-((3-(2,6-dioxopiperidin-3-yl)-4-oxo-3,4-dihydrobenzo[d][1,2,3]triazin-6-yl)glycyl)piperidin-4-yl)-1H-1,2,3-triazol-1-yl)benzamide], the CC50 – broadly, the concentration at which the toxic effect on the cells reaches its halfway point – in the series on VCaP cells (setting [1]) came out at 0.00359 µM; in the series on LNCaP cells (setting [2]), 0.0899 µM.

As for `CC1(C)C(NC(=O)c2ccc(-n3cc(CC4CCN(C(=O)CNc5ccc6nnn(C7CCC(=O)NC7=O)c(=O)c6c5)CC4)nn3)cc2)C(C)(C)C1Oc1ccc(C#N)c(Cl)c1` (stereo not shown) [Example 106, N-((1r,3r)-3-(3-chloro-4-cyanophenoxy)-2,2,4,4-tetramethylcyclobutyl)-4-(4-((1-((3-(2,6-dioxopiperidin-3-yl)-4-oxo-3,4-dihydrobenzo[d][1,2,3]triazin-6-yl)glycyl)piperidin-4-yl)methyl)-1H-1,2,3-triazol-1-yl)benzamide], the cytotoxic concentration (CC50) in the series on VCaP cells (setting [1]) worked out at 0.0113 µM; in the series on LNCaP cells (setting [2]) it was 0.0691 µM.

Turning to `CC1(C)C(NC(=O)c2ccc(CCN3CCN(CC4CCN(C(=O)CNc5ccc6nnn(C7CCC(=O)NC7=O)c(=O)c6c5)CC4)CC3)cc2)C(C)(C)C1Oc1ccc(C#N)c(Cl)c1` (stereo not shown) [Example 110, N-((1r,3r)-3-(3-chloro-4-cyanophenoxy)-2,2,4,4-tetramethylcyclobutyl)-4-(2-(4-((1-((3-(2,6-dioxopiperidin-3-yl)-4-oxo-3,4-dihydrobenzo[d][1,2,3]triazin-6-yl)glycyl)piperidin-4-yl)methyl)piperazin-1-yl)ethyl)benzamide], the figures for the CC50 with VCaP cells (setting [1]) and in the series with LNCaP cells (setting [2]) were 0.00365 µM and 0.456 µM, respectively.

Consider `CC1(C)C(NC(=O)c2ccc(C#CC3CCN(CC4CCN(C(=O)C5CCN(c6ccc7nnn(C8CCC(=O)NC8=O)c(=O)c7c6)CC5)CC4)CC3)cc2)C(C)(C)C1Oc1ccc(C#N)c(Cl)c1` (stereo not shown) [Example 97, N-((1r,3r)-3-(3-chloro-4-cyanophenoxy)-2,2,4,4-tetramethylcyclobutyl)-4-((1-((1-(1-(3-(2,6-dioxopiperidin-3-yl)-4-oxo-3,4-dihydrobenzo[d][1,2,3]triazin-6-yl)piperidine-4-carbonyl)piperidin-4-yl)methyl)piperidin-4-yl)ethynyl)benzamide], for which the CC50 was 0.00208 µM in the series with VCaP cells (setting [1]) and 0.0767 µM in the series on LNCaP cells (setting [2]).

For the molecule `CC1(C)[C@H](NC(=O)c2ccc(N3CCN(C4CC5(CCN(c6ccc7nnn(C8CCC(=O)NC8=O)c(=O)c7c6)CC5)C4)CC3)cc2)C(C)(C)[C@H]1Oc1ccc(C#N)c(Cl)c1` (stereo partly shown) [Example 23, N-((1r,3r)-3-(3-chloro-4-cyanophenoxy)-2,2,4,4-tetramethylcyclobutyl)-4-(4-(7-(3-(2,6-dioxopiperidin-3-yl)-4-oxo-3,4-dihydrobenzo[d][1,2,3]triazin-6-yl)-7-azaspiro[3.5]nonan-2-yl)piperazin-1-yl)benzamide], the results for the cytotoxic concentration (CC50) with VCaP cells (setting [1]) and in the series on LNCaP cells (setting [2]) were 0.191 µM and 0.302 µM, respectively. The “Degradation (1 μM treated in LNCaP, % AR remaining)” value at Androgen receptor (AR) amounted to 5%.

Turning to `CC1(C)[C@H](NC(=O)c2ccc(N3CCN(CC4CCN(c5ccc6nnn(C7CCC(=O)NC7=O)c(=O)c6c5)CC4)CC3)cc2)C(C)(C)[C@H]1Oc1ccc(C#N)c(Cl)c1` (stereo partly shown) [Example 8, N-((1r,3r)-3-(3-chloro-4-cyanophenoxy)-2,2,4,4-tetramethylcyclobutyl)-4-(4-((1-(3-(2,6-dioxopiperidin-3-yl)-4-oxo-3,4-dihydrobenzo[d][1,2,3]triazin-6-yl)piperidin-4-yl)methyl)piperazin-1-yl)benzamide], the half-maximal cytotoxic concentration (CC50) with VCaP cells (Homo sapiens, VCaP, 144 h, read-out: VCaP (CC50, μM)) is 0.685 µM; with LNCaP cells (Homo sapiens, LNCaP, 144 h, read-out: LNCAP (CC50, μM)) it was 0.163 µM. Besides, the remaining activity at 1 µM at Androgen receptor (AR) (read-out: Degradation (1 μM treated in LNCaP, % AR remaining)) was found to be 8.1%.

On to `CC1(C)C(NC(=O)c2ccc(C#CCC3CCN(CC4CCN(C(=O)C5CN(c6ccc7nnn(C8CCC(=O)NC8=O)c(=O)c7c6)C5)CC4)CC3)cc2)C(C)(C)C1Oc1ccc(C#N)c(Cl)c1` (stereo not shown) [Example 117, N-((1r,3r)-3-(3-chloro-4-cyanophenoxy)-2,2,4,4-tetramethylcyclobutyl)-4-(3-(1-((1-(1-(3-(2,6-dioxopiperidin-3-yl)-4-oxo-3,4-dihydrobenzo[d][1,2,3]triazin-6-yl)azetidine-3-carbonyl)piperidin-4-yl)methyl)piperidin-4-yl)prop-1-yn-1-yl)benzamide], for which the values for the CC50 with VCaP cells (setting [1]) and in the series with LNCaP cells (setting [2]) were 0.013 µM and 0.166 µM, respectively.

For the molecule `CC1(C)C(NC(=O)c2ccc(CCN3CC4CN(C(=O)C5CCN(c6ccc7nnn(C8CCC(=O)NC8=O)c(=O)c7c6)CC5)CC4C3)cc2)C(C)(C)C1Oc1ccc(C#N)c(Cl)c1` (stereo not shown) [Example 93, N-((1r,3r)-3-(3-chloro-4-cyanophenoxy)-2,2,4,4-tetramethylcyclobutyl)-4-(2-(5-(1-(3-(2,6-dioxopiperidin-3-yl)-4-oxo-3,4-dihydrobenzo[d][1,2,3]triazin-6-yl)piperidine-4-carbonyl)hexahydropyrrolo[3,4-c]pyrrol-2(1H)-yl)ethyl)benzamide], the CC50 was found to be 0.0224 µM in the series on VCaP cells (setting [1]) and 0.0515 µM in the series on LNCaP cells (setting [2]).

Regarding `CC1(C)C(NC(=O)c2ccc(-n3cc(C4CCN(C(=O)C5CCN(c6ccc7nnn(C8CCC(=O)NC8=O)c(=O)c7c6)CC5)CC4)nn3)cc2)C(C)(C)C1Oc1ccc(C#N)c(Cl)c1` (stereo not shown) [Example 102, N-((1r,3r)-3-(3-chloro-4-cyanophenoxy)-2,2,4,4-tetramethylcyclobutyl)-4-(4-(1-(1-(3-(2,6-dioxopiperidin-3-yl)-4-oxo-3,4-dihydrobenzo[d][1,2,3]triazin-6-yl)piperidine-4-carbonyl)piperidin-4-yl)-1H-1,2,3-triazol-1-yl)benzamide], the results for the cytotoxic concentration (CC50) with VCaP cells (setting [1]) and with LNCaP cells (setting [2]) were 0.00588 µM and 0.0158 µM, respectively.

Consider `CC1(C)C(NC(=O)c2ccc(-c3cnn(C4CCN(CC5CCN(c6ccc7nnn(C8CCC(=O)NC8=O)c(=O)c7c6)CC5)CC4)c3)nc2)C(C)(C)C1Oc1ccc(C#N)c(Cl)c1` (stereo not shown) [Example 115, N-((1r,3r)-3-(3-chloro-4-cyanophenoxy)-2,2,4,4-tetramethylcyclobutyl)-6-(1-(1-((1-(3-(2,6-dioxopiperidin-3-yl)-4-oxo-3,4-dihydrobenzo[d][1,2,3]triazin-6-yl)piperidin-4-yl)methyl)piperidin-4-yl)-1H-pyrazol-4-yl)nicotinamide], for which the CC50 with VCaP cells (setting [1]) is 0.038 µM; in the series with LNCaP cells (setting [2]), 0.182 µM.

In the case of `CC1(C)C(NC(=O)c2ccc(CCN3CCN(CC4CCN(c5ccc6nnn(C7CCC(=O)NC7=O)c(=O)c6c5)CC4)CC3)cc2)C(C)(C)C1Oc1ccc(C#N)c(Cl)c1` (stereo not shown) [Example 111, N-((1r,3r)-3-(3-chloro-4-cyanophenoxy)-2,2,4,4-tetramethylcyclobutyl)-4-(2-(4-((1-(3-(2,6-dioxopiperidin-3-yl)-4-oxo-3,4-dihydrobenzo[d][1,2,3]triazin-6-yl)piperidin-4-yl)methyl)piperazin-1-yl)ethyl)benzamide], the figures for the CC50 in the series on VCaP cells (setting [1]) and in the series with LNCaP cells (setting [2]) were 0.00229 µM and 0.0372 µM, respectively.

`CC1(C)C(NC(=O)c2ccc(CCN3CC4CN(C(=O)C5CN(c6ccc7nnn(C8CCC(=O)NC8=O)c(=O)c7c6)C5)CC4C3)cc2)C(C)(C)C1Oc1ccc(C#N)c(Cl)c1` (stereo not shown) [Example 94, N-((1r,3r)-3-(3-chloro-4-cyanophenoxy)-2,2,4,4-tetramethylcyclobutyl)-4-(2-(5-(1-(3-(2,6-dioxopiperidin-3-yl)-4-oxo-3,4-dihydrobenzo[d][1,2,3]triazin-6-yl)azetidine-3-carbonyl)hexahydropyrrolo[3,4-c]pyrrol-2(1H)-yl)ethyl)benzamide]: the results for the half-maximal cytotoxic concentration (CC50) in the series on VCaP cells (setting [1]) and in the series on LNCaP cells (setting [2]) were 0.00784 µM and 0.108 µM, respectively.

`CC1(C)C(NC(=O)c2ccc(-n3cc(CC4CCN(c5ccc6nnn(C7CCC(=O)NC7=O)c(=O)c6c5)CC4)nn3)cc2)C(C)(C)C1Oc1ccc(C#N)c(Cl)c1` (stereo not shown) [Example 103, N-((1r,3r)-3-(3-chloro-4-cyanophenoxy)-2,2,4,4-tetramethylcyclobutyl)-4-(4-((1-(3-(2,6-dioxopiperidin-3-yl)-4-oxo-3,4-dihydrobenzo[d][1,2,3]triazin-6-yl)piperidin-4-yl)methyl)-1H-1,2,3-triazol-1-yl)benzamide]: the CC50 was 0.0123 µM with VCaP cells (setting [1]) and 0.144 µM in the series on LNCaP cells (setting [2]).
